From patent publication US6479487B1, “6, 9-disubstituted 2-[trans-(4-aminocyclohexyl)amino] purines” (Aventis Pharmaceuticals Inc., priority 1998, dated 2002) come the findings set out here.

One assay deals with T1, cdk2/cyclin E (Homo sapiens, UniProt P24941).
T1 construct: made in house; host or cells: insect cells (baculovirus co-infection)
Briefly: Cyclin-Dependent Kinase 2 Assay (cdk2/cyclin E, GST-Rb substrate). It counts as biochemical. The note with it: recombinant cdk2/cyclin E, 10 μM ATP, 30 min at 30° C., several values in a cell = separate determinations, read-out: CDK-2 Inhibition IC50. As for the experimental part: Substrate: GST-Rb as described above for cdk4/cyclin D1
Assay conditions for cdk2/cyclin E were identical to those for cdk4/cyclin D1 including the substrate. The concentration of recombinant cdk2/cyclin E in the assay was 0.1 μg per 100 μl assay. Incubation was for 30 min at 30° C.

The target in the next assay is T2, cdk4/cyclin D1 (Homo sapiens, UniProt P11802).
T2 construct: made in house; host or cells: Sf9 insect cells (Bac-to-Bac baculovirus, pFastBac)
The assay is described as follows: Cyclin-dependent Kinase 4 Assay (cdk4/cyclin D1, GST-Rb substrate). The note with it: cdk4/cyclin D1 insect cell lysate, 10 μM ATP, 30 min at 37° C., several values = separate determinations, read-out: CDK4 Inhibition IC50. The assay is classed as biochemical. As for the experimental part: The IC50 values for cdk4 inhibition were by the following method:
The transformed bacteria were grown overnight to saturation, then diluted in YT broth and incubated at 37° C. for 2 h. The protein was induced by incubation with 0.1 mM isopropylthioglycoside for 3 h. Following sedimentation by centrifugation, the cells were lysed by sonication in STE buffer ([…] NaCl, 10 mM Tris, pH 8.0, 1 mM EDTA) containing 10% sarkosyl. Particulate matter was removed by centrifugation and the lysate was incubated with glutathione-Sepharose at 4° C. The beads were washed with kinase buffer and then quantitation of Coomassie blue-stained proteins separated by SDS-PAGE was performed using a protein standard of known concentration.
The cDNA for human cyclin D1 was cloned by RT PCR using […] from MCF-7 cells. […] Bacmid DNA was used to transfect Sf9 insect cells to produce recombinant virus. Following plaque purification of the virus, the viral preparations were amplified until high titer stocks were acheived.
Lysates were prepared by lysis of Sf9 cells coinfected with cdk4 and cyclin D1 in 50 mM HEPES, pH 7.5, 10 mM MgCl2, 1 mM DTT, 0.1 mM phenylmethylsulfonyl fluoride, 5 μg/ml aprotinin, and 5 μg/ml leupeptin using a PARR bomb under 500 p.s.i nitrogen pressure for 5 min at 4° C. Insoluble material was sedimented at 10,000×g for 20 min at 4° C. Glycerol was added to the supernatant to 10% and stored at −80° C. in aliquots.
Pre-wet Millipore Multiscreen 96-well filter plates (0.65 μm Durapore filters) with 200 μl kinase buffer (50 mM HEPES, pH 7.5, 10 mM MgCl2, 1 mM EGTA). GST-Rb (0.5 μg) bound to glutathione-Sepharose beads is added in 50 μl per well and the solution removed by application of vacuum. […] Add 0.1 μg cdk4/cyclin D1 (insect cell lysate) to initiate assay. Incubate 30 min at 37° C. Terminate reaction by filtration on Millipore Vacuum Manifold. Wash four times with TNEN (20 mM Tris, pH 8.0, 100 mM Na Cl, 1 mM EDTA, 0.5% nonidet P-40). After drying the plates at room temperature, the filter plates were placed in adapter plates (Packard) and 40 μl of Microscint-O® (Packard) was added to each well. Top Seal A film was used to cover the plates before counting in a Top Count Scintillation Counter.

A further assay relates to MDA-MB-231. Briefly: In vitro tumor cell proliferation, MDA-MB-231. It counts as cell-based, human. The conditions noted are these: sulforhodamine B or CyQUANT assay, many values given with an undefined *, read-out: In vitro Tumor Cell Proliferation (IC50, μM) Breast MDA-MB-231. As for the experimental part:
(§1) The proliferation of tumor cells was measured using a sulforhodamine B assay as described in Skehan, P., et al., J. Natl. Cancer Inst. […] Tumor cells were harvested with trypsin-EDTA, cells that excluded trypan blue were counted, added to 96-well plates and incubated overnight at 37° C. Drug was added to the wells following dilution in culture medium. Three days later, the medium was removed and replenished with medium containing fresh drug and incubated an additional 4 days. The cells were then fixed with 0.1 ml 10% trichloroacetic acid for 60 min at 4° C. The plates were rinsed five times with tap water, air-dried and stained for 30 min with 0.4% sulforhodamine B in 1% acetic acid and air-dried.
(§2) Alternatively, the CyQUANT cell proliferation assay was used to quantitate cell proliferation.
(§3) Alternatively, the CyQUANT cell proliferation assay was used to quantify tumor cell proliferation. Tumor cells were harvested with trypsin-EDTA, cells that excluded trypan blue were counted, added to 96-well plates and incubated overnight at 37° C. Drug was added to the wells following dilution in culture medium. Three days later the medium was removed and the plates frozen at −80° C. for at least 30 minutes.
MDA-MB-23 1 is a human breast adenocarcinoma, hormone-independent (HTB 26);

A further assay concerns MDA-MB-435. Briefly: In vitro tumor cell proliferation, MDA-MB-435. The assay is classed as cell-based. The note with it: values given with an undefined *, read-out: In vitro Tumor Cell Proliferation (IC50, μM) Breast MDA-MB-435. As for the experimental part: as §1, §2, §3
A further assay has as its system HT-29. The assay is described as follows: In vitro tumor cell proliferation, HT-29. The assay is classed as cell-based, human. The note with it: many values given with an undefined *, read-out: In vitro Tumor Cell Proliferation (IC50, μM) Colon HT-29. As for the experimental part: as §1, §2, §3
HT-29 is a human colon adenocarcinoma, moderately well-differentiated grade II (HTB 38);

For another assay, the system named is DMS-114. The assay is described as follows: In vitro tumor cell proliferation, DMS-114. It counts as cell-based, human. The conditions noted are these: many values given with an undefined *, read-out: In vitro Tumor Cell Proliferation (IC50, μM) Lung DMS-114. As for the experimental part: DMS-1 14: human small cell lung carcinoma;
as §1, §2, §3

The subject of a further assay is DU145. The assay is described as follows: In vitro tumor cell proliferation, DU145. It counts as cell-based, human. The conditions noted are these: many values given with an undefined *, read-out: In vitro Tumor Cell Proliferation (IC50, μM) Prostate DU145. As for the experimental part: as §1, §2, §3
For another assay, the system named is A549. The assay is described as follows: In vitro tumor cell proliferation, A549. The assay is classed as cell-based, human. The note with it: many values given with an undefined *, read-out: In vitro Tumor Cell Proliferation (IC50, μM) Lung A549. As for the experimental part: as §1, §2, §3
Setting [1] is: Homo sapiens, MDA-MB-435, MDA-MB-435.

“And” between values parts separate entries of the source, which are not always exact repeats. Equal values may be shown once. Where a name gives a salt, the structure may show the parent alone. Read-outs that look alike come from different tables or passages of the source.

T2 sequence (P11802 whole entry): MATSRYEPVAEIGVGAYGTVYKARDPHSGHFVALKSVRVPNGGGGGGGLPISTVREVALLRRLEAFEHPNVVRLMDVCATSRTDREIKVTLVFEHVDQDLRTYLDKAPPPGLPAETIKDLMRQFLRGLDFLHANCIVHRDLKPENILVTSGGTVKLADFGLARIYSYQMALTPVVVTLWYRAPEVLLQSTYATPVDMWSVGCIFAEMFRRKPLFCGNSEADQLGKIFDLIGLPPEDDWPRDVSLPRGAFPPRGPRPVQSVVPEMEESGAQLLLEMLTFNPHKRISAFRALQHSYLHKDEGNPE
T2 sequence (P24385 whole entry partner): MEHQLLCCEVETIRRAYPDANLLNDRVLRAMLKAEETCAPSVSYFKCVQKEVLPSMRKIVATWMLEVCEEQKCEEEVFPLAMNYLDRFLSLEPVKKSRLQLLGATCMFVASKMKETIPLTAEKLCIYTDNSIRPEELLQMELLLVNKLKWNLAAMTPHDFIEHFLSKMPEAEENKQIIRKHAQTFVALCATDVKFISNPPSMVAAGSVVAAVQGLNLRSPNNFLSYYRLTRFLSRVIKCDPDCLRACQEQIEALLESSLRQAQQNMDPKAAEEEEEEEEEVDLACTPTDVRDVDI

`COCCNc1nc(N[C@H]2CC[C@H](N)CC2)nc2c1ncn2C1CCCC1` [Example 16, 2-[Trans-(4-aminocyclohexyl)amino]-6-(2-methoxyethylamino)-9-cyclopentylpurine dihydrochloride]: the IC50 at cdk2/cyclin E was 55 nM and 30 nM; on cdk4/cyclin D1, 230 nM and 280 nM; with MDA-MB-231 (Homo sapiens, MDA-MB-231, MDA-MB-231) it was 4.7 µM; in the assay on MDA-MB-231 (MDA-MB-231, dihydrochloride), 4.1 µM; in the assay with MDA-MB-435 (setting [1]), 9.2 µM; in the assay on MDA-MB-435 (MDA-MB-435, dihydrochloride), 7.6 µM. Besides, the IC50 with HT-29 (HT-29, dihydrochloride) stood at 6.3 µM; with HT-29 (Homo sapiens, HT-29, HT-29), 6.4 µM; in the assay with DMS-114 (DMS-114, dihydrochloride), 4.4 µM; with DMS-114 (Homo sapiens, DMS-114, DMS-114), 4.8 µM; in the assay on DU145 (DU145, dihydrochloride) it was 3.3 µM; in the assay with DU145 (Homo sapiens, DU-145, DU145) it was 2.5 µM.

As for `N[C@H]1CC[C@H](Nc2nc(NNc3ccccc3Cl)c3ncn(C4CCCC4)c3n2)CC1` [Example 2, 2-[Trans-(4-aminocyclohexyl)amino]-6-(2-chlorophenylhydrazino)-9-cyclopentylpurine dihydrochloride], the IC50 is 120 nM and 100 nM at cdk2/cyclin E; 1300 nM and 1000 nM at cdk4/cyclin D1; 8 µM in the assay on MDA-MB-435 (setting [1]); 8.2 µM in the assay on MDA-MB-435 (MDA-MB-435, dihydrochloride); 2.5 µM and 4.1 µM with HT-29 (HT-29, dihydrochloride); 2.4 µM in the assay on HT-29 (Homo sapiens, HT-29, HT-29). The IC50 in the assay with A549 (A549, dihydrochloride) is 2.2 µM and 1.8 µM; in the assay with A549 (Homo sapiens, A549, A549), 1.7 µM.

For `COc1cccc(CNc2nc(N[C@H]3CC[C@H](N)CC3)nc3c2ncn3C(C)C)c1OC` [Example 30, 2-[Trans-(4-aminocyclohexyl)amino]-6-[(2.3-dimethoxybenzyl)amino]-9-(2-propyl)purine dihydrochloride], the values for the IC50 at cdk2/cyclin E and at cdk4/cyclin D1 were 1400 nM and 2400 nM, respectively.

`NC1CCC(Nc2nc(NC(c3ccc(Cl)cc3)C3CC3)c3ncn(C4CCCC4)c3n2)CC1` (racemic) [Example 24, (+/−)-2-[Trans-(4-aminocyclohexyl)amino]-6-[(α-cyclopropyl-4-chlorobenzyl)amino]-9-cyclopentylpurine dihydrochloride]: the IC50 at cdk2/cyclin E was 27100 nM; at cdk4/cyclin D1, 4600 nM and 10000 nM.

Consider `COc1cccc(OC)c1CNc1nc(N[C@H]2CC[C@H](N)CC2)nc2c1ncn2C1CCCC1` [Example 4, 2-[Trans-(4-aminocyclohexyl)amino]-6-[(2,6-dimethoxybenzyl)amino]-1-9-cyclopentylpurine dihydrochloride], for which the IC50 at cdk2/cyclin E is 19400 nM; at cdk4/cyclin D1, 46000 nM and > 100000 nM.

For `CCN(CC)CCCNc1nc(N[C@H]2CC[C@H](N)CC2)nc2c1ncn2C1CCCC1` [Example 18, 2-[Trans-(4-aminocyclohexyl)amino]-6-[(3-diethylamino)propylamino]-9-cyclopentylpurine dihydrochloride], the IC50 at cdk2/cyclin E stood at 1000 nM; on cdk4/cyclin D1, 1400 nM.
